This is an account of results in ChEMBL document CHEMBL1156829 (Proc Natl Acad Sci U S A, 2008).

Some results are limits rather than exact numbers.

Data set [1] has as its system Plasmodium falciparum. Kind of data set: NOVARTIS: Inhibition of Plasmodium falciparum 3D7 (drug-susceptible) proliferation in erythrocyte-based infection assay. To be noted: Plasmodium falciparum, 3D7. Format: functional, organism-based.
Data set [2] is described as follows: NOVARTIS: Cytotoxicity against human hepatocellular carcinoma cell line (Huh7). In kind it is toxicity, cell-based, Huh-7. The conditions noted are these: Huh7 cells (hepatocellular carcinoma cell line).
Data set [3] concerns Plasmodium falciparum. The data set is described as follows: NOVARTIS: Inhibition of Plasmodium falciparum W2 (drug-resistant) proliferation in erythrocyte-based infection assay. In kind it is functional, organism-based. The conditions noted are these: Plasmodium falciparum, W2; read-out: EC50.

In the case of `Cc1ccc(-c2nn(CC(=O)Nc3ccc(OC(F)(F)F)cc3)c(=O)c3ccccc23)cc1S(=O)(=O)N1CCCCC1`, the EC50 in the data set with Plasmodium falciparum [1] is greater than 1.25 µM; with Plasmodium falciparum [3], 1.92 µM. Moreover, the CC50 in data set [2] was greater than 10 µM.
For the molecule `CCCN1CCC(N2C[C@@H](NCc3ccc(OCc4ccccc4)cc3)C[C@H]2C(=O)NCCc2ccc3c(c2)OCO3)CC1`, the concentration for a half-maximal effect (EC50) with Plasmodium falciparum [1] is 1.07 µM; in the data set on Plasmodium falciparum [3], 0.701 µM. For the same molecule, the CC50 in data set [2] was determined as 3.56 µM.
For the molecule `O=C1Cc2ccccc2C(=C2CCNCC2)c2ccsc21`, the 50% effective concentration (EC50) turned out to be 0.532 µM in the data set with Plasmodium falciparum [1] and 2.04 µM with Plasmodium falciparum [3]. In data set [2], this molecule registered a cytotoxic concentration (CC50) greater than 10 µM.
The matching figures for `CC(C)NC(=O)N1CCN(C(=O)COC(c2cccs2)c2cccnc2Cl)CC1` (centres undefined): greater than 1.25 µM, 2.02 µM and greater than 10 µM.
The matching figures for `CC[C@@H]1CCC[C@H](C)CC[C@@H](O[C@@H]2O[C@@H](C)[C@@H](O)[C@@H](N)[C@H]2O)[C@H](CC)CCCNC1=O`: 1.58 µM, greater than 1.25 µM and greater than 6.25 µM.
As to `NC(=NCc1ccccc1)NC(=O)c1nc(Cl)c(N)nc1N`, the EC50 with Plasmodium falciparum [1] was 1.16 µM; in the data set with Plasmodium falciparum [3], greater than 1.25 µM. The molecule further came in with a 50% cytotoxic concentration (CC50) in data set [2] greater than 6.25 µM.
The matching figures for `COc1cc(C(=O)Nc2ccc3nc4n(c(=O)c3c2)CCCCC4)cc(OC)c1OC`: greater than 0.589 µM, 1.88 µM and greater than 10 µM.
With `CC1(C)Oc2ccc(C(=O)N3CCCC3)cc2N(CCc2ccccc2)C1=O`, the half-maximal effective concentration (EC50) in the data set on Plasmodium falciparum [1] is greater than 1.12 µM; with Plasmodium falciparum [3] it was 1.87 µM. The molecule further displayed a CC50 in data set [2] greater than 10 µM.
The corresponding values for `Cc1cccc(Nc2nc3nonc3[nH]c2=NN=Cc2cccs2)c1C` are 8.65 µM, 4.3 µM and 23.3 µM.
The matching figures for `CC1=C(C(=O)OC(C)C)C(c2ccccc2F)C2=C(CC(C)(C)CC2=O)N1` (centres undefined): greater than 1.25 µM, 1.91 µM and greater than 10 µM.
For `COC(=O)c1c(S(=O)(=O)NCCc2ccccc2)sc2c1CCN(Cc1cccnc1)C2`, the results for the concentration giving a half-maximal response (EC50) in the data set with Plasmodium falciparum [1] and with Plasmodium falciparum [3] were 1.57 µM and 1.91 µM, respectively. The CC50 in data set [2] is greater than 10 µM.
The corresponding values for `O=C(Nc1ccc2c(c1)OCO2)c1cc2cc(C3(O)CCN(CCCc4ccccc4)CC3)ccc2o1` are 0.912 µM, 1.18 µM and 6.32 µM.
With `COc1ccc(CCN(Cc2ccc(Cl)cc2)S(=O)(=O)c2ccc(S(N)(=O)=O)cc2)cc1OC`, the half-maximal effective concentration (EC50) in the data set with Plasmodium falciparum [1] is 4.72 µM; in the data set with Plasmodium falciparum [3] it was greater than 12.5 µM. Also, the CC50 in data set [2] turned out to be 67.3 µM.
Consider `c1ccc2[nH]c(CN(Cc3nc4ccccc4[nH]3)Cc3nc4ccccc4[nH]3)nc2c1`, for which the 50% effective concentration (EC50) with Plasmodium falciparum [1] came to 0.191 µM; with Plasmodium falciparum [3] it was 5.26 µM. In data set [2], this molecule registered a CC50 of 26.7 µM.
As to `COc1cccc(CNC(=O)Cn2ncc3c(=O)oc4ccc(C)cc4c32)c1`, the EC50 with Plasmodium falciparum [1] is greater than 1.73 µM; with Plasmodium falciparum [3], 1.76 µM. This molecule also came in with a cytotoxic concentration (CC50) in data set [2] greater than 10 µM.
For `CCOC(=O)C1=C(C)NC2=C(C(=O)CCC2)C1c1cc(Br)c(O)c(OCC)c1` (centres undefined), the 50% effective concentration (EC50) with Plasmodium falciparum [1] is greater than 0.51 µM; in the data set on Plasmodium falciparum [3] it was greater than 1.76 µM. In addition, the 50% cytotoxic concentration (CC50) in data set [2] was greater than 10 µM.
As to `Cc1ccccc1NC(=O)N(CCCNC(=O)CCl)c1ccccc1`, the results for the concentration for a half-maximal effect (EC50) with Plasmodium falciparum [1] and in the data set with Plasmodium falciparum [3] were greater than 0.442 µM and 1.77 µM, respectively. This molecule had a CC50 in data set [2] greater than 10 µM.
The corresponding values for `O=C(c1ccncc1)N1N=C(c2c(-c3ccccc3)c3cc(Br)ccc3[nH]c2=O)CC1c1ccccc1` (centres undefined) are 0.144 µM, 1.54 µM and 8.7 µM.
As for `O=[N+]([O-])c1ccc2nc(NC3CCCCC3)c(NC3CCCCC3)nc2c1`, the EC50 in the data set on Plasmodium falciparum [1] came to 2.49 µM; in the data set on Plasmodium falciparum [3], 2.65 µM. The CC50 in data set [2] is 14.7 µM.
The matching figures for `O=C(COC(=O)c1ccccc1O)c1ccc(Br)cc1`: 1.54 µM, 1.82 µM and greater than 10 µM.
The matching figures for `Cc1ccc(-n2c(=S)sc3c(=O)n(-c4ccccc4)c(SCC(=O)c4ccccc4)nc32)cc1C`: greater than 1.25 µM, 1.79 µM and greater than 10 µM.
The matching figures for `COc1cccc(C2(NC(=O)CCn3ccnc3-c3ccccc3)CCCC2)c1`: greater than 1.25 µM, 1.78 µM and greater than 10 µM.
For `Cc1cc(N(C)C)cc(C)[n+]1OC(=O)N(c1ccccc1)c1ccccc1`, the concentration for a half-maximal effect (EC50) was greater than 1.49 µM in the data set with Plasmodium falciparum [1] and 2 µM in the data set on Plasmodium falciparum [3]. The same molecule yielded a cytotoxic concentration (CC50) in data set [2] greater than 10 µM.
The matching figures for `O=C(NCCc1ccccc1)c1cnc(NCCCn2ccnc2)nc1NC1CCCC1`: 0.678 µM, 1.72 µM and greater than 8.69 µM.
Turning to `CCc1ccc(CSc2nc3cc(OC)c(OC)cc3c(=N)n2CCc2ccccc2)cc1`, the EC50 in the data set with Plasmodium falciparum [1] came to 6.64 µM; with Plasmodium falciparum [3], 7.62 µM. The molecule further registered a CC50 in data set [2] of 38.9 µM.
The corresponding values for `Cn1c(SCC2CCCO2)nnc1C1CCN(C/C=C/c2ccccc2)CC1` (centres undefined) are greater than 1.28 µM, greater than 0.758 µM and greater than 3.89 µM.
The matching figures for `Clc1ccc(Nc2nc3nonc3nc2Nc2ccc(Cl)c(Cl)c2)cc1Cl`: greater than 12.5 µM, 9.28 µM and 48.7 µM.
The corresponding values for `COc1cccc(OC)c1C(=O)Nc1cc(C(F)(F)F)ccc1Cl` are greater than 1.25 µM, 1.81 µM and greater than 10 µM.
For the molecule `CCCCC(CC)C(=O)N1CCN(C(C)c2nc3ccc(Cl)cc3c(=O)n2C)CC1` (centres undefined), the EC50 was greater than 1.49 µM with Plasmodium falciparum [1] and 1.81 µM with Plasmodium falciparum [3]. In data set [2], this molecule displayed a half-maximal cytotoxic concentration (CC50) greater than 10 µM.
On to `Cc1cc(NC(=O)/C=C/c2ccccc2Cl)ccc1Br`, for which the EC50 turned out to be 1.35 µM with Plasmodium falciparum [1] and 1.81 µM in the data set with Plasmodium falciparum [3]. The molecule further showed a CC50 in data set [2] greater than 10 µM.
The matching figures for `O=C(NC1CC1)c1ccc(N2C(=O)C3C4c5ccccc5C(c5ccccc54)C3C2=O)cc1` (centres undefined): greater than 0.872 µM, 1.9 µM and greater than 10 µM.
In the case of `O=C(Nc1ccc(C(F)(F)F)cc1)c1cc(S(=O)(=O)NC2CCCCCC2)ccc1F`, the concentration giving a half-maximal response (EC50) was determined as 4 µM in the data set on Plasmodium falciparum [1] and 3.33 µM in the data set on Plasmodium falciparum [3]. Further, it took 17.7 µM to reach half-maximal cytotoxicity in data set [2] (CC50).
For the molecule `Cc1ccc2[nH]c(/C(C#N)=C/c3cn(Cc4ccc(Cl)cc4Cl)nc3-c3ccccc3)nc2c1`, the concentration for a half-maximal effect (EC50) with Plasmodium falciparum [1] is greater than 1.01 µM; with Plasmodium falciparum [3], 1.88 µM. In data set [2], this molecule had a 50% cytotoxic concentration (CC50) greater than 10 µM.
The corresponding values for `CCOc1ccc(CN(CCC(c2ccccc2)c2ccccc2)C(=O)Nc2ccccc2C)cc1` are greater than 1.35 µM, 1.85 µM and greater than 10 µM.
Turning to `CC(C)(c1ccc(Oc2ccc(NC(=O)c3ccccc3)cc2)cc1)c1cccc(Oc2ccc(NC(=O)c3ccccc3)cc2)c1`, the EC50 in the data set with Plasmodium falciparum [1] worked out at 1.56 µM; in the data set with Plasmodium falciparum [3], 1.77 µM. Also, the CC50 in data set [2] is greater than 10 µM.
Consider `CC(C)(C)c1ccc(NC(=O)CN2CCCCC2)cc1`, for which the EC50 is greater than 12.5 µM in the data set on Plasmodium falciparum [1] and greater than 8.77 µM with Plasmodium falciparum [3]. The molecule also registered a half-maximal cytotoxic concentration (CC50) in data set [2] of 49.7 µM.
Take `COC(=O)c1ccccc1NC(=O)COc1cccc(OC)c1`: the EC50 was greater than 1.41 µM in the data set with Plasmodium falciparum [1] and 1.86 µM with Plasmodium falciparum [3]. For the same molecule, the cytotoxic concentration (CC50) in data set [2] was greater than 10 µM.
The matching figures for `O=C(Nc1ccc(-c2nc3ccc(NC(=O)c4cccc5ccccc45)cc3[nH]2)cc1)c1cccc2ccccc12`: 1.43 µM, 1.92 µM and greater than 10 µM.
Take `COc1ccc(C)cc1Nc1nc(N)c2cc(OC)c(OC)cc2n1`: the EC50 was determined as 0.973 µM in the data set with Plasmodium falciparum [1] and 2.04 µM in the data set on Plasmodium falciparum [3]. Moreover, in data set [2], the CC50 is greater than 10 µM.
For the molecule `Cc1sc2nc(C3CC3)n(C3CCN(C(=O)c4ccccn4)CC3)c(=O)c2c1C`, the concentration giving a half-maximal response (EC50) in the data set on Plasmodium falciparum [1] was greater than 1.25 µM; in the data set on Plasmodium falciparum [3] it was 2.02 µM. In addition, the CC50 in data set [2] is greater than 10 µM.
In the case of `COC(=O)COc1ccc(/C=C2\SC(=Nc3ccc(F)cc3)NC2=O)cc1`, the concentration for a half-maximal effect (EC50) in the data set with Plasmodium falciparum [1] is greater than 0.757 µM; in the data set with Plasmodium falciparum [3], 1.79 µM. Also, the CC50 in data set [2] is greater than 10 µM.
The matching figures for `N=C1NC(=O)C(=CC=Cc2ccc([N+](=O)[O-])o2)S1`: 0.707 µM, 1.47 µM and 7.21 µM.
For the molecule `c1ccc(C2=NN(c3ccccc3)C(c3ccc4c(c3)OCO4)N2c2ccc(N3CCOCC3)cc2)cc1` (centres undefined), the results for the concentration giving a half-maximal response (EC50) in the data set on Plasmodium falciparum [1] and with Plasmodium falciparum [3] were 0.68 µM and 1.78 µM, respectively. In data set [2], this molecule registered a half-maximal cytotoxic concentration (CC50) greater than 10 µM.
In the case of `COc1ccccc1CN1CCc2nc(-c3cnccn3)sc2C1`, the EC50 in the data set with Plasmodium falciparum [1] is 9.23 µM; in the data set with Plasmodium falciparum [3] it was 4.44 µM. Besides, the midpoint of cytotoxicity in data set [2], the CC50, lay at 23 µM.
The corresponding values for `O=[N+]([O-])c1ccc(-n2cccc2C=NNc2ncnc3sc4c(c23)CCCC4)cc1` are 2.78 µM, 1.41 µM and 7.45 µM.
The matching figures for `CCCNC(=O)N1CCC2(CC1)CC(=O)c1ccccc1O2`: greater than 1.25 µM, 1.77 µM and greater than 10 µM.
The corresponding values for `CCOC(=O)NC(=O)N1CCC(c2nc(-c3cc(C(C)(C)C)c(O)c(C(C)(C)C)c3)cs2)CC1` are 1.66 µM, 1.88 µM and greater than 10 µM.
Consider `COc1ccc(CCNc2nc(NCCCn3ccnc3)ncc2C(=O)NCC(C)C)cc1OC`, for which the 50% effective concentration (EC50) in the data set with Plasmodium falciparum [1] is 0.563 µM; with Plasmodium falciparum [3] it was greater than 1.25 µM. Besides, the CC50 in data set [2] is greater than 6.78 µM.
The matching figures for `COc1ccc(OC)c(-c2csc(N(CCCN(C)C)C(=O)Cc3ccccc3)n2)c1`: 4.05 µM, 3.43 µM and 17.7 µM.
The corresponding values for `Cc1cc(NC(=O)c2ccc(Br)cc2)no1` are greater than 1.25 µM, 1.91 µM and greater than 10 µM.
As for `c1ccc(CSc2scnc2[P+](c2ccccc2)(c2ccccc2)c2ccccc2)cc1`, the EC50 in the data set on Plasmodium falciparum [1] amounted to 0.335 µM; with Plasmodium falciparum [3], 0.563 µM. In data set [2], the CC50 came out at 3.19 µM.
With `CC1=C(C(=O)OCCOc2ccccc2)C(c2cccc([N+](=O)[O-])c2)C2=C(CCCC2=O)N1` (centres undefined), the EC50 with Plasmodium falciparum [1] was greater than 1.25 µM; in the data set with Plasmodium falciparum [3], 1.81 µM. Besides, the cytotoxic concentration (CC50) in data set [2] is greater than 10 µM.
The matching figures for `CCOc1ccc(N2C(=O)NC(=O)/C(=C\c3cn(C(C)=O)c4ccccc34)C2=O)cc1`: greater than 1.25 µM, 1.86 µM and greater than 10 µM.

The EC50 is the midpoint of the concentration-response curve. Usually CC50 stands for the concentration at which the toxic effect on the cells reaches its halfway point.
